Legend:
[1] = molecular target: cAMP-dependent protein kinase catalytic subunit alpha (Homo sapiens, UniProt P17612); assay: Selectivity interaction (Kinase panel (literature)) EUB0001199aCl PRKACA; conditions: at 1 µM
[2] = molecular target: Serine/threonine-protein kinase 24 (Homo sapiens) (UniProt Q9Y6E0); assay: Selectivity interaction (KinomeScan (DiscoverX)) EUB0000666a STK24; conditions: at 10 µM
[3] = molecular target: Serine/threonine-protein kinase WNK4 (Homo sapiens) (UniProt Q96J92); assay: Selectivity interaction (KinomeScan (DiscoverX)) EUB0000229b WNK4; conditions: at 10 µM
[4] = molecular target: T1, Phosphatidylinositol 4,5-bisphosphate 3-kinase catalytic subunit delta isoform (Homo sapiens) (UniProt O00329); assay: Selectivity interaction (ActivX KiNativ screen (kinase selectivity in THP-1 cell lysates)) EUB0000639a PIK3CD; assay type: subcellular; conditions: lysate, at 1 µM
T1 sequence (whole entry): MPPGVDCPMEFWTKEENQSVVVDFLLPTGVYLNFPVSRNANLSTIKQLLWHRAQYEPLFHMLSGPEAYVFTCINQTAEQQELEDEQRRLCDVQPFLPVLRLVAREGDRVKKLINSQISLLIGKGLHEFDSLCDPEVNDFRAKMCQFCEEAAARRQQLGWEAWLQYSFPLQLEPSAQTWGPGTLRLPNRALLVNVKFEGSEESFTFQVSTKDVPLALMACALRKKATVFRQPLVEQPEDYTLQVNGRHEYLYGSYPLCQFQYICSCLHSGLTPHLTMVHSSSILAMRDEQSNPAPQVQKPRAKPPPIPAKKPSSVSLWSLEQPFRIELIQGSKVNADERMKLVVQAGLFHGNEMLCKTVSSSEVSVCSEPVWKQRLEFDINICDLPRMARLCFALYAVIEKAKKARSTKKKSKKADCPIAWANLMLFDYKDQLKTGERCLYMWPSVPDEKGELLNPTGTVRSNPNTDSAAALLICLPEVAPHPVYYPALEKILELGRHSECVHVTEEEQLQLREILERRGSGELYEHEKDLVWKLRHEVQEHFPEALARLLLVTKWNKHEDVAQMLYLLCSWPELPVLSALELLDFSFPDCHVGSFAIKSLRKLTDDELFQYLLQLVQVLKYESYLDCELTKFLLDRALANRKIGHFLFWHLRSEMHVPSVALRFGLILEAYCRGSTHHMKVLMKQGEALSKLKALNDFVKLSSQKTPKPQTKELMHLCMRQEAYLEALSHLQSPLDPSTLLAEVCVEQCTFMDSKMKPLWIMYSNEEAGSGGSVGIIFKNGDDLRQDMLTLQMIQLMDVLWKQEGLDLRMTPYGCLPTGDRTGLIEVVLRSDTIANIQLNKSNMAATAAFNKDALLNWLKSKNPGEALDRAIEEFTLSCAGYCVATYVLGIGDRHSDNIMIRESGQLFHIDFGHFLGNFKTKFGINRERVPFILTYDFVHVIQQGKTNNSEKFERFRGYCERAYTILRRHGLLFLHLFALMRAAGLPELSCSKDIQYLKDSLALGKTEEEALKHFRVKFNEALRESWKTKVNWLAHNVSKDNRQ

[5] = molecular target: Interferon-induced, double-stranded RNA-activated protein kinase (Homo sapiens) (UniProt P19525); assay: Selectivity interaction (KinomeScan (DiscoverX)) EUB0000595a EIF2AK2; conditions: at 10 µM
[6] = molecular target: T2, Serine/threonine-protein kinase LATS1 (Homo sapiens) (UniProt O95835); assay: Selectivity interaction (ActivX KiNativ screen (ex vivo kinase selectivity in human PBMCs)) EUB0001619a LATS1; assay type: cell-based; conditions: PBMC, at 1 µM
T2 sequence (whole entry): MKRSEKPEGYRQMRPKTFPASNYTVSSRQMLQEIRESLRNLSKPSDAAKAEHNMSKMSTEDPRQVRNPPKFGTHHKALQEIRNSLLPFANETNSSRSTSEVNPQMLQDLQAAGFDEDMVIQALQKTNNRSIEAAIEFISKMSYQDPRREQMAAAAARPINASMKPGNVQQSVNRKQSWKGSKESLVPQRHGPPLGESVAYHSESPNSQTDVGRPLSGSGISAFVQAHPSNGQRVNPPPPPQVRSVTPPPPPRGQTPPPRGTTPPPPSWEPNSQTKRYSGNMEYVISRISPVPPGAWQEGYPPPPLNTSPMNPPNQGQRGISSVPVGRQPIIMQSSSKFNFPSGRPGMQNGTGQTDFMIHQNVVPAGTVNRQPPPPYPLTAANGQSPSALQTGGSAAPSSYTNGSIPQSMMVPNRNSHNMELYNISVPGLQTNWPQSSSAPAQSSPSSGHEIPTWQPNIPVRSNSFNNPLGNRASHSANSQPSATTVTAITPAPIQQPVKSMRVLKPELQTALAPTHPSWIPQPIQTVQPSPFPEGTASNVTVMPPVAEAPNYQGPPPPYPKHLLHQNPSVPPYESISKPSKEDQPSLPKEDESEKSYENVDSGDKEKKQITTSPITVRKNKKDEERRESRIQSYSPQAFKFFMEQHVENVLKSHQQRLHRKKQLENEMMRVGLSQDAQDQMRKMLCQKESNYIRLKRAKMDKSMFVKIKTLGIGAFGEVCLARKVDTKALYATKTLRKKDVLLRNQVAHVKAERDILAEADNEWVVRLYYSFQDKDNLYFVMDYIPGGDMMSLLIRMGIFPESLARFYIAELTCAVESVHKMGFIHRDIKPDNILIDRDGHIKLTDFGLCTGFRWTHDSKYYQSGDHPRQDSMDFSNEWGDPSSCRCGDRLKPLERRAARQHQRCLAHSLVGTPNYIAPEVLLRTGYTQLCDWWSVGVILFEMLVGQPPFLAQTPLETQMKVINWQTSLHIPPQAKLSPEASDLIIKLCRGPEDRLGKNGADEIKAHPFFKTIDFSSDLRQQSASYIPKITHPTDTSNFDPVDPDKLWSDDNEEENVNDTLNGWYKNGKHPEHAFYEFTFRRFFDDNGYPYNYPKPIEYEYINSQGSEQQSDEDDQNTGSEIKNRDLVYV

[7] = molecular target: Mitogen-activated protein kinase kinase kinase 21 (Homo sapiens) (UniProt Q5TCX8); assay: Selectivity interaction (ProQinase) EUB0000171b MAP3K21
Sequence of Mitogen-activated protein kinase kinase kinase 21 (Homo sapiens) (Q5TCX8 whole entry): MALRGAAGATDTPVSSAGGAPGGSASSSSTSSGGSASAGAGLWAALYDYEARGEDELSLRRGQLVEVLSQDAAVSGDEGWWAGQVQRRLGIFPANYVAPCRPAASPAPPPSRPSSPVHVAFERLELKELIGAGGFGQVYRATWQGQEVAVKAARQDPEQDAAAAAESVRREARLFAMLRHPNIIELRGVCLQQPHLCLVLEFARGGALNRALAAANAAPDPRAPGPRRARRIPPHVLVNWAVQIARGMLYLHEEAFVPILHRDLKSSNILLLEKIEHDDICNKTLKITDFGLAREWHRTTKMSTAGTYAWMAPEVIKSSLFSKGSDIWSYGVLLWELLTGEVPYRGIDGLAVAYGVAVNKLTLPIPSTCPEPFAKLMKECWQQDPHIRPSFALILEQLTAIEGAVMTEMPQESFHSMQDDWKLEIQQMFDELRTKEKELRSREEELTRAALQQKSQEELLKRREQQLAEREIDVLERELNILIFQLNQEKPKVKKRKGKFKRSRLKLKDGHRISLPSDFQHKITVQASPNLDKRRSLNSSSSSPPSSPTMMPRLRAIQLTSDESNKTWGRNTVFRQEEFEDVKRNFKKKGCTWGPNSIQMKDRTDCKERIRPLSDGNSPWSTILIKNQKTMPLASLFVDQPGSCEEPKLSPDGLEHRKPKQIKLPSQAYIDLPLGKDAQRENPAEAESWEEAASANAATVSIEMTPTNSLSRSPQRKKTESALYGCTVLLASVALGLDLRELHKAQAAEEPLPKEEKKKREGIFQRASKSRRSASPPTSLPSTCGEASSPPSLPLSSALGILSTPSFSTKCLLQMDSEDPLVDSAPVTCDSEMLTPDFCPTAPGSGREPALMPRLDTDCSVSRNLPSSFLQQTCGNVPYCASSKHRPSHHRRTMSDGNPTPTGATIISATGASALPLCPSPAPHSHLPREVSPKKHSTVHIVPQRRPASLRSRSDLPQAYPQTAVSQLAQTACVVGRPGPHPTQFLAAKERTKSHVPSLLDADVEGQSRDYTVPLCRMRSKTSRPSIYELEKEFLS

Sequence of Serine/threonine-protein kinase WNK4 (Homo sapiens) (Q96J92 whole entry, canonical isoform): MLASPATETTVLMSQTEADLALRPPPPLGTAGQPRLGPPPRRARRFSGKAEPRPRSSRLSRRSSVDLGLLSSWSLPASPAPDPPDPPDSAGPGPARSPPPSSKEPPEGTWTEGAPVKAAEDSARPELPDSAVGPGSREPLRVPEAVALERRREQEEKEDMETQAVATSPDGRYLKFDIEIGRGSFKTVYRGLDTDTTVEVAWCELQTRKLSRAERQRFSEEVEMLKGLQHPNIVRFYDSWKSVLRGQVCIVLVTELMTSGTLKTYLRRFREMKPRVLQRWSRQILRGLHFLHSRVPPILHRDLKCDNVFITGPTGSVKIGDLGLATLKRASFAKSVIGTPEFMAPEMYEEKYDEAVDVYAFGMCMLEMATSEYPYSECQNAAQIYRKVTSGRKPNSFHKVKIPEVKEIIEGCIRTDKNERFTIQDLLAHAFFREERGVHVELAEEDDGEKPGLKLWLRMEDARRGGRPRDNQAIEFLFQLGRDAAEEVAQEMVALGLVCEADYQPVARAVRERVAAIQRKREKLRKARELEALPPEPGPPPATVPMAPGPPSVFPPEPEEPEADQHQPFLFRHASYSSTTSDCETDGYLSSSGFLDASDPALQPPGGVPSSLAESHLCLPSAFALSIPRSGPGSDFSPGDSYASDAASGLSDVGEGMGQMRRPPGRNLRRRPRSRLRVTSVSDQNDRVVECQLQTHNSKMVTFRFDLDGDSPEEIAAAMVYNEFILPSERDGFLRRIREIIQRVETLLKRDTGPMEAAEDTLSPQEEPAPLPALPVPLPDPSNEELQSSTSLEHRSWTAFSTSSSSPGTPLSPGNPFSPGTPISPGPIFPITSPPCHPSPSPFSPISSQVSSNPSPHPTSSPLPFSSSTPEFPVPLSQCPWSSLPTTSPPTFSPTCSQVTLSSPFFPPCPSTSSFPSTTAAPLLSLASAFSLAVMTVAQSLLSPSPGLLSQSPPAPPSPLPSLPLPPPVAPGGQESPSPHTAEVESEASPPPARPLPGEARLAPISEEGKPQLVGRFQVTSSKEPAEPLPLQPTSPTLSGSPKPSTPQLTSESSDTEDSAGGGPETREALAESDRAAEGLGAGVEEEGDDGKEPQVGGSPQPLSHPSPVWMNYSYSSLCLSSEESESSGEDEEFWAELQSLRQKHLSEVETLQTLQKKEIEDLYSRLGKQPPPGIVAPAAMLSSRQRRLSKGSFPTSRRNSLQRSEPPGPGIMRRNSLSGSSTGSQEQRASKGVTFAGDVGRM
Sequence of Interferon-induced, double-stranded RNA-activated protein kinase (Homo sapiens) (P19525 whole entry): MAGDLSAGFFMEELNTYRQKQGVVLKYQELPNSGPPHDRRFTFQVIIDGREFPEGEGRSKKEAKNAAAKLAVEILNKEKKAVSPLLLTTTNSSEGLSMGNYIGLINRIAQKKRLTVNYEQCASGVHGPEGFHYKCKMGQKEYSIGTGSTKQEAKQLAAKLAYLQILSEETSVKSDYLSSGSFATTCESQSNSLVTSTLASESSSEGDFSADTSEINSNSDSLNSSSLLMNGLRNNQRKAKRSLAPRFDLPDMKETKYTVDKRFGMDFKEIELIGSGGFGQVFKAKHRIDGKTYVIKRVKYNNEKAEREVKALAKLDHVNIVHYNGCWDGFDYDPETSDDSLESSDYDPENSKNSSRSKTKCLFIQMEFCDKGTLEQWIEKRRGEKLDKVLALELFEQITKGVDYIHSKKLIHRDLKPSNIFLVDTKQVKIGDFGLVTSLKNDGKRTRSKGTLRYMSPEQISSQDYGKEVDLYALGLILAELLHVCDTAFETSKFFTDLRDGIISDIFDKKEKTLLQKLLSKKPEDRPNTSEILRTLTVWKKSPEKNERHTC
Sequence of Serine/threonine-protein kinase 24 (Homo sapiens) (Q9Y6E0 whole entry, looked up): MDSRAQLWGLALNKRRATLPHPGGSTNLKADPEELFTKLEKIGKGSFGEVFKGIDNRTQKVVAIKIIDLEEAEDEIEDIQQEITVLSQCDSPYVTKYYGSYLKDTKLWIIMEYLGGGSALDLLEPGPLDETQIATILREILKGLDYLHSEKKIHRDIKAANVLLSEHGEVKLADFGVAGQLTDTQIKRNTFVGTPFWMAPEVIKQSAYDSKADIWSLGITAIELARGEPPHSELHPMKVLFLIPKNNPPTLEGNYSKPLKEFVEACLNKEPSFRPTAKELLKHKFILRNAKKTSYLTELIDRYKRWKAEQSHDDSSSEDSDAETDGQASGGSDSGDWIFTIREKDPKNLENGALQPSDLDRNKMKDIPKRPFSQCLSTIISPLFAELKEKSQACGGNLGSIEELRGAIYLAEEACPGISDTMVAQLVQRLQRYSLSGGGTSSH

With `CN1Cc2nccc(-c3cn(C)nc3-c3ccc(F)cc3)c2C1=O` the % of inhibition [1] was 2%.

In the case of `O=C(NOC[C@H](O)CO)c1ccc(F)c(F)c1Nc1ccc(I)cc1F`, the % of control [2] is reported as 88%.

With `COc1cc(N(C)c2ccnc3ccc(C(F)(F)F)cc23)cc(OC)c1OC` the % binding [3] was 100%.

Work on `CC[C@@H]1[C@H](F)C(=O)N[C@@H]1COc1nccc2cc(C(N)=O)c(OC)cc12` [ZIMLOVISERTIB] yielded a % of inhibition [4] of -2.6%.

In the case of `COCC(=O)NC/C=C/c1ccc2ncnc(Nc3ccc(Oc4ccc(C)nc4)c(C)c3)c2c1` [CP-724714], the % of control [5] is reported as 99%.

Work on `N#Cc1cccc(-c2c[nH]c3ncnc(N4CCOCC4)c23)c1` yielded a % of inhibition [6] of 5%.

Compound `C=CC(=O)Nc1cccc(C(=O)Nc2ccc(Nc3cc(-c4[nH]c(SC)nc4C)ccn3)cc2)c1` has a % of control ([7]; at 1 µM) of 81% and a % of control ([7]; at 5 µM) of 59%.

— ChEMBL document CHEMBL5465560, “Selectivity Literature for EUbOPEN Chemogenomic Library” (2024)
